Reference: paper PMC6066796 (Antiviral Research, 2018)
Like-named read-outs stand apart in the source and are kept apart here.

Assays:
[1] = test system: recombinant EBOV (Mayinga variant); assay type: cell-based, Ebola virus; details: read-out: Approximate EC50 against recombinant reporter EBOV variants
RAVV (Ravn variant) = assay type: cell-based, Ravn virus
NiV (Malaysian genotype) = details: cited from earlier work
HeV = details: cited from earlier work

Compound | EC50 [1] | Reduction of infectious RAVV titers (RAVV (Ravn variant)) | Reduction of infectious RAVV titers (RAVV (Ravn variant); at 50 μM) | EC50 (NiV (Malaysian genotype)) | EC50 (HeV)
2′-monofluoro-4′-azidocytidine [2′F-4′N3-C] | 3000 to 8000 nM | roughly 1.5 orders of magnitude | – | – | –
[N-]=[N+]=N[C@]1(CO)O[C@@H](n2ccc(N)nc2=O)[C@H](O)[C@@H]1O [R1479, 4′-azidocytidine] | ~2000 nM | – | over 4 orders of magnitude | 1500 nM | 2400 nM
